Columns and labels:
Elg1-RFC [1] = test system: T1, Elg1-RFC; assay: cryo-EM structure, […] Å; format: binding, Saccharomyces cerevisiae
T1 construct: heteropentamer; 3xFLAG-Elg1 and Rfc5 (pLANT-2RIL) with Rfc2, Rfc3, Rfc4 (pET11a) co-expressed in E. coli BLR(DE3) (results text says expressed in yeast); anti-FLAG and MonoS; no tag removal told

Elg1-RFC–PCNA = test system: T2, Elg1-RFC–PCNA; assay: cryo-EM structure, […] Å (closed PCNA) and […] Å (cracked PCNA); format: binding, Saccharomyces cerevisiae; conditions: glutaraldehyde cross-linked
T2 construct: with Proliferating cell nuclear antigen
T2 sequence (P40348 whole entry, one chain of several, further chain): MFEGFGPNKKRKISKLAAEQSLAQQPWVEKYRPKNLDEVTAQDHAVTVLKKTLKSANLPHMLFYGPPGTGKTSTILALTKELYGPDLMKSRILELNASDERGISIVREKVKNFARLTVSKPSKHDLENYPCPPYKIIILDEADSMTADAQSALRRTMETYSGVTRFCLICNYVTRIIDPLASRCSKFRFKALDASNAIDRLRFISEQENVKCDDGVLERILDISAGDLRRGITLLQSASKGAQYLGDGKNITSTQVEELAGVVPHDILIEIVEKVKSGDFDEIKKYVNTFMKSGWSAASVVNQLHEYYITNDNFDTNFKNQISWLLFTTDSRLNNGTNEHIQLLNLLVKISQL
T2 sequence (P38251 whole entry, one chain of several, further chain): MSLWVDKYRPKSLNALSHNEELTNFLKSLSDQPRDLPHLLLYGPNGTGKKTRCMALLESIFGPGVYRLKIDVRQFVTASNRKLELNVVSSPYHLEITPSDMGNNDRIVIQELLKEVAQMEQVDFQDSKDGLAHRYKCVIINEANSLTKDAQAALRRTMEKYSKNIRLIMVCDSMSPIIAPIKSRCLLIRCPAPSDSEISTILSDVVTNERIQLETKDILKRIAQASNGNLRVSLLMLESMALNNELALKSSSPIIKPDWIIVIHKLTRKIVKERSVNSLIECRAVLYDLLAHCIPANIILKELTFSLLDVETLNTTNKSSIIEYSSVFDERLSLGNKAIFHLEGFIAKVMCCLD

Elg1-RFC [2] = test system: T1, Elg1-RFC; assay: […]-PCNA unloading from nicked plasmid, gel filtration; format: biochemical, Saccharomyces cerevisiae; conditions: 2 mM AMP-PNP, 56 nM Elg1-RFC, 0.69 nM 32P-PCNA-DNA, 8 mM MgCl2, 100 mM NaCl, pH 7.5, 30 °C, 2 min; supports unloading without hydrolysis
[3] = target: T3, Elg1 (enhanced levels of genome instability 1), subunit of Elg1-RFC (S. cerevisiae, UniProt Q12050 1-791); assay: cryo-EM structure; Elg1-RFC 2.9 uM, PCNA clamp 1.3 uM, 5'-tailed DNA 28.7 uM, ATPgammaS 0.5 mM, Mg-acetate 6.7 mM, ice-water bath, then cross-linked with glutaraldehyde and quenched with Tris; no DNA seen in the maps; closed and cracked PCNA ring; conditions: both partners purified
T3 construct: Elg1 (enhanced levels of genome instability 1), S. cerevisiae; Stood in the assay as a subunit of the Elg1-RFC pentamer; also called 3xFLAG-Elg1; Elg1 subunit; source: E. coli BLR(DE3), co-expressed with Rfc2-5, purified as Elg1-RFC (anti-FLAG resin, MonoS)
T3 sequence (looked up): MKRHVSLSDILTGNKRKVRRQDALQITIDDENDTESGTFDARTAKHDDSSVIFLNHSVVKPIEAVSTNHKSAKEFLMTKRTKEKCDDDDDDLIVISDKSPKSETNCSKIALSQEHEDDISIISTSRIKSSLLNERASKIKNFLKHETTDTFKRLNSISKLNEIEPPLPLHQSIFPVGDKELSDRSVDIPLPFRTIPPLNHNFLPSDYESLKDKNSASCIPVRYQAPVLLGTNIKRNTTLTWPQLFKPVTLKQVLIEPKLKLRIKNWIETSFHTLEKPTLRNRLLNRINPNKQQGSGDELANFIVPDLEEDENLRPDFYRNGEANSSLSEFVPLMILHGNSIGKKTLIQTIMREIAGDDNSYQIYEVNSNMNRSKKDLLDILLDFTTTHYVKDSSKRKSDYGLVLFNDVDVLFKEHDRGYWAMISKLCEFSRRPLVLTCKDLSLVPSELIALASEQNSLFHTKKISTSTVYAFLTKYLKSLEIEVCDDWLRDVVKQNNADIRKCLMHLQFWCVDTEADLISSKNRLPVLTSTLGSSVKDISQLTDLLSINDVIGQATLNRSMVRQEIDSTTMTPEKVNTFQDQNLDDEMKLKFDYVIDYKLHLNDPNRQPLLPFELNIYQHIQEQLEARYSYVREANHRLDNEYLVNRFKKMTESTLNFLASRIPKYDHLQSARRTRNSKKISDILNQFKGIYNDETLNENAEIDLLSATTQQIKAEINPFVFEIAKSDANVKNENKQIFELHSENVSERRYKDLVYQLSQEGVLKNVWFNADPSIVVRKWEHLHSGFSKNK

[4] = target: T4, Rfc3, subunit of Elg1-RFC (S. cerevisiae, UniProt P38629 1-340); assay: as above; conditions: both partners purified
T4 construct: Rfc3, S. cerevisiae replication factor C subunit 3; Stood in the assay as a subunit of the Elg1-RFC pentamer; source: E. coli BLR(DE3), co-expressed with Elg1 and Rfc2, 4, 5, purified as Elg1-RFC (anti-FLAG resin, MonoS)
T4 sequence: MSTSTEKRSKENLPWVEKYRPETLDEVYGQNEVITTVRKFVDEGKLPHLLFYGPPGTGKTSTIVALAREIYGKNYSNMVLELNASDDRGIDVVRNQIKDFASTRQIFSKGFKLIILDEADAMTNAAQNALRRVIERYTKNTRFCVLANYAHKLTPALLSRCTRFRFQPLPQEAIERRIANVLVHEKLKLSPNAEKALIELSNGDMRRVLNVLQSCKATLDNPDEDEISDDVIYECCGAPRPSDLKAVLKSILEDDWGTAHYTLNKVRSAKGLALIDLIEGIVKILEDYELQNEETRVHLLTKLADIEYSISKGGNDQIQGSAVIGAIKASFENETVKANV

[5] = target: T5, Rfc4, subunit of Elg1-RFC (S. cerevisiae, UniProt P40339 1-323); assay: as above; conditions: both partners purified
T5 construct: Rfc4, S. cerevisiae replication factor C subunit 4; Stood in the assay as a subunit of the Elg1-RFC pentamer; source: E. coli BLR(DE3), co-expressed with Elg1 and Rfc2, 3, 5, purified as Elg1-RFC (anti-FLAG resin, MonoS)
T5 sequence: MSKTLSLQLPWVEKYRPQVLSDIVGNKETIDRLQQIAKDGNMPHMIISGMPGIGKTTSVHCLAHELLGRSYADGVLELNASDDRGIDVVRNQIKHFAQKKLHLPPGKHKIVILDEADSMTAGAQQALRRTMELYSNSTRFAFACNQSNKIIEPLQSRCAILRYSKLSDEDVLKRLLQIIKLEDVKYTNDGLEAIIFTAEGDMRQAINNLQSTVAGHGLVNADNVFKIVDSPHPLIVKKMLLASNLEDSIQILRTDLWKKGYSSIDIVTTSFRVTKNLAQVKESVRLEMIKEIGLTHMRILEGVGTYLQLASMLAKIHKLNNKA

[6] = target: the molecule itself; assay: as above
[7] = site in Rfc5, ADP not listed among added components

T1 sequence (P40348 whole entry, one chain of several, further chain): as the sequence (P40348 whole entry, one chain of several, further chain) above
T1 sequence (P38251 whole entry, one chain of several, further chain): as the sequence (P38251 whole entry, one chain of several, further chain) above

For `Nc1ncnc2c1ncn2[C@@H]1O[C@H](COP(=O)(O)OP(=O)(O)OP(O)(O)=S)[C@@H](O)[C@H]1O` [ATPγS], the “cryo-EM structure, 3.2 Å” value (Elg1-RFC [1]; 0.5 mM ATPγS final (1 mM in results text), 6.7 mM Mg-acetate, sites in Rfc2, Rfc3, Rfc4 and Elg1, Elg1 site without Mg density) was “four ATPγS in Rfc2, Rfc3, Rfc4, and Elg1, and one ADP in Rfc5” and the “cryo-EM structure, 3.3 Å (closed PCNA) and 3.7 Å (cracked PCNA)” value (Elg1-RFC–PCNA; 0.5 mM ATPγS final (1 mM in results text), 6.7 mM Mg-acetate, sites in Rfc2, Rfc3, Rfc4 and Elg1) was “In all three Elg1-RFC structures, we found five bound nucleotides: four ATPγS in Rfc2, Rfc3”.

`Nc1ncnc2c1ncn2[C@@H]1O[C@H](COP(=O)(O)OP(=O)(O)O)[C@@H](O)[C@H]1O` [ADP] was tested, and the “cryo-EM structure, 3.2 Å” value (Elg1-RFC [1]; [7]) was “four ATPγS in Rfc2, Rfc3, Rfc4, and Elg1, and one ADP in Rfc5” and the “cryo-EM structure, 3.3 Å (closed PCNA) and 3.7 Å (cracked PCNA)” value (Elg1-RFC–PCNA; [7]) was “In all three Elg1-RFC structures, we found five bound nucleotides”.

In the case of `Nc1ncnc2c1ncn2[C@@H]1O[C@H](COP(=O)(O)OP(=O)(O)NP(=O)(O)O)[C@@H](O)[C@H]1O` [AMP-PNP], the “32P-PCNA unloading from nicked plasmid, gel filtration” value (Elg1-RFC [2]) is reported as “Elg1-RFC can unload PCNA from DNA with non-hydrolyzable AMP-PNP”.

B1: proliferating cell nuclear antigen (PCNA), S. cerevisiae (natural protein)
chain: MLEAKFEEASLFKRIIDGFKDCVQLVNFQCKEDGIIAQAVDDSRVLLVSLEIGVEAFQEYRCDHPVTLGMDLTSLSKILRCGNNTDTLTLIADNTPDSIILLFEDTKKDRIAEYSLKLMDIDADFLKIEELQYDSTLSLPSSEFSKIVRDLSQLSDSINIMITKETIKFVADGDIGSGSVIIKPFVDMEHPETSIKLEMDQPVDLTFGAKYLLDIIKGSSLSDRVGIRLSSEAPALFQFDLKSGFLQFFLAPKFNDEE
notes: PCNA, S. cerevisiae sliding clamp; Homotrimeric ring; In the unloading assays the kinase site was labelled with 32P; also called PCNA clamp; PCNA ring
B1: binds [3]; binds [4]; binds [5]. The “stoichiometry N” value [6] was 3.

Source: article PMC10906927, “Structure of the PCNA unloader Elg1-RFC” (Science Advances, 2024)
